Article PMC11020070, “Discovery of Protease-Activated Receptor 4 (PAR4)-Tethered Ligand Antagonists Using Ultralarge Virtual Screening” (ACS Pharmacology & Translational Science, 2024)
Entries after “also recorded” stand apart in the source; their conditions may differ.

Experiments:
thrombin = thrombin (Homo sapiens, UniProt P00734); experiment: Fluorometric assay of in vitro thrombin activity; format: biochemical
Text: The enamine-purchased 7 compound was confirmed using mass spectrometry and ^1H NMR (data not shown) and then was independently resynthesized at Vanderbilt University (VU).
(1 picture or pasted object on this page, not shown here)

[1] = Buffer-only incubation (KPI or Tyrode's HP buffer), compound stability; format: physicochemical; conditions: potassium phosphate (KPI) or Tyrode's buffer (HP), no microsomes
Text: (§1) Mammalian liver microsomes include CYPs, flavin monooxygenases (FMOs), glucuronosyltransferases ([…]), and esterases as part of their enzyme composition. In the presence of NADPH, which serves as a cofactor for CYP- and FMO-dependent reactions, the observed activity can be attributed to these enzymes. Similarly, UGTs require the cofactor uridine diphosphate glucuronic acid (UDPGA). Therefore, when NADPH and UDPGA are absent, any reduction in the compound can be ascribed only to esterase activity or chemical instability. […] This is based on two factors: (1) the stability of the compounds in HP buffer, which is used in the platelet assays, and (2) the low probability of drug metabolism occurring within the platelets themselves. Together, these minimize the chance that any metabolites with distinct PAR4 potencies could confound the results. By comparing the area under the curve of the compound metabolized from the microsomal incubations in the presence or absence of NADPH to the corresponding area under the curve of the buffer-only incubation, the percent contribution of CYPs and FMOs and esterases were estimated (Table S1). The major contributing enzyme toward the metabolism of 12 is esterases in both the human (96%) and mouse (98%). In contrast, the metabolism of 31 was primarily driven by CYPs and FMOs in both HLM (80%) and MLM (88%).
Supplem ental Fig ure S5 . Depletion of 12 over time in the presence (ν) or absence (λ) of NADPH. Incubations w e re carried out in the presence of human (A) or mouse (B) li ver microsomes or without microsomes but in either KPI (C) or HP (D) buffer. […] Error bars smaller than the symbols a re not visible. […]
Supplem ental Figure S6. […] Values a re expressed as percentage of compound remaining at ea ch time compared with time 0 min and represent the mean ± SD (n = 3). […]
Supplem ental Fig ure S7 . […] Values a re expressed as percentage of compound remaining at ea ch time co mpa red with time 0 min and represent the mean ± SD (n = 3). […]

[2] = Modified microsomal clearance assay with or without NADPH, mouse liver microsomes; format: in vitro ADME; conditions: for Estimated % Contribution to Metabolism Mouse CYPs/FMOs / Estimated % Contribution to Metabolism Mouse Esterases: MLM, from AUC with/without NADPH vs buffer only; for CLint scaled at 1 µM: mouse, liver microsomes, pH 7.4, MLM, reaction initiated by test compound
Protocol: It is of note that the experimental design for the initial round of microsomal clearance assays adds a test compound to microsomes before the reaction is started by the addition of nicotinamide adenine dinucleotide phosphate (NADPH). This design assumes that the major contributing drug-metabolizing enzymes are cytochrome P450s (CYPs). To investigate this further, the experimental design was modified where the reaction was initiated by the addition of a test compound and was carried out in the presence or absence of NADPH. […] By comparison of the measured intrinsic clearance in the presence and absence of NADPH, the contribution of non-CYP450 drug-metabolizing enzymes can be estimated.
as §1
In separate 96-well plates for each time point, a mixture of 0.1 M potassium phosphate-buffered (pH 7.4), 3 mM MgCl2, and 2.5 mg/mL microsomes were prewarmed at 37 °C for 5 min. Following the preincubation, a 1 μM test compound and 1 mM NADPH (for 3, 7, 15, 25, or 45 min time points) or buffer (for 0 min time point) were added to initiate the reaction. Under standard conditions, reactions were initiated with the addition of NADPH. To delineate the contribution of esterases, some experiments were initiated by the addition of substrate in the presence or absence of NADPH. Plates were incubated at 37 °C under ambient oxygenation. At the respective times, each plate’s reaction was precipitated by the addition of 2 volumes of ice-cold acetonitrile containing an internal standard (carbamazepine, 50 nM). The plates were centrifuged at 4000 rcf (4 °C) for 5 min. The resulting supernatants were transferred and diluted 1:1 (supernatant:water) into new 96-well plates in preparation for LC/MS/MS analysis. Each compound was assayed in triplicate within the same 96-well plate. The in vitro half-life (t1/2, min, eq 1), intrinsic clearance (CLint, mL/min/kg, eq 2), and subsequent predicted hepatic clearance (CLhep, mL/min/kg, eq 3) were determined employing the following equations [drawing 1] 1 [drawing 2] 2 [drawing 3] 3 The estimated percent contribution to metabolism was calculated from the percent substrate lost plots generated from metabolic incubations initiated with the addition of a test compound. Calculations compared the area under the curve (AUC) from conditions in the presence and absence of NADPH and buffer-only (control) conditions (eqs 4 and 5). AUC was calculated by using the trapezoidal method [drawing 4] 4 [drawing 5] 5
Clint (mL/min/kg) Estimated % Contribution to Metabolism
Compound Human Mouse Human Mouse +NADPH -NADPH +NADPH -NADPH CYPs/FMOs Esterases CYPs/FMOs Esterases […]

| SMILES | direct inhibition of thrombin enzymatic activity (thrombin) | loss of compound over time in buffer only [1] | Estimated % Contribution to Metabolism Mouse CYPs/FMOs [2] [%] | Estimated % Contribution to Metabolism Mouse Esterases [2] [%] | CLint scaled at 1 µM ([2]; +NADPH) [L/h/kg] | CLint scaled at 1 µM ([2]; -NADPH) [L/h/kg] |
| --- | --- | --- | --- | --- | --- | --- |
| Cc1nc(NC(=O)c2cc(-c3ccccc3)n(-c3ccccc3)n2)n[nH]1 [Compound 7] | do not inhibition; also recorded: failed to directly inhibit |  |  |  |  |  |
| Cc1cc(C(=O)Nc2n[nH]c(OC(F)F)n2)nn1-c1ccccc1 [Compound 9] | do not inhibition |  |  |  |  |  |
| Cn1nc(C(=O)Nc2n[nH]c(-c3c(F)cccc3F)n2)cc1C1CC1 [Compound 12] |  | little loss of compound over time | 2 | 98 | 589 | 374 |
| O=C(Nc1nc[nH]n1)c1nn(-c2ccccc2)c2c1CCC2 [Compound 17] |  | little loss of compound over time |  | 0 | 47.3 | 1.67 |
| O=C(Nc1n[nH]c(-c2ccc(F)cc2F)n1)c1nn(-c2ccccc2)c2c1CCCC2 [Compound 31] |  | little loss of compound over time | 88 | 12 | 626 | 1.94 |
